Read-outs that look alike come from different tables or passages of the source.
Experiments:
ALK kinase = molecular target: ALK kinase; parameters: method as in PMID 19825801; settings: cited from earlier work
CK1δ [1] = molecular target: CK1δ; parameters: method as in PMID 19825801; settings: cited from earlier work
CK1δ [2] = molecular target: CK1δ; parameters: method as in PMID 21336281; settings: cited from earlier work
CK1δ (aa 1-294) = molecular target: T1, CK1δ (aa 1-294) (Homo sapiens, UniProt P48730); assay: CK1δ KinaseGlo luminescence enzymatic assay; type: biochemical; settings: for remaining activity at 40 µM: ligand at 40 μM, mean of two independent experiments in duplicate, read-out: % CK1δ residual activity - fixed dose 40 μM; for IC50: mean of three independent experiments, 95% confidence limits in brackets, 4 μM ATP, 0.1% casein
T1 construct: Compounds were evaluated towards CK1δ (aa 1-294, Merck Millipore); purchased Merck Millipore
T1 sequence (P48730 1-294): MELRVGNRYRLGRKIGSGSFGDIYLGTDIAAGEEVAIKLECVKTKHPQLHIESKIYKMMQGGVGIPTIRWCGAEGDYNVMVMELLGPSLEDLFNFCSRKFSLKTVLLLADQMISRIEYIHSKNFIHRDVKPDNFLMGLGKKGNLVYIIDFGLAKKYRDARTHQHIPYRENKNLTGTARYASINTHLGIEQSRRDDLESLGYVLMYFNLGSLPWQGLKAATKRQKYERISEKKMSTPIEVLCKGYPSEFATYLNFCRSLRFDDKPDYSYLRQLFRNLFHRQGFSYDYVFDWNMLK
Procedure: Fragments were tested against CK1δ using a luminescent-based assay.
Compounds were evaluated towards CK1δ (aa 1-294, Merck Millipore, Frankfurter Strasse 250, Darmstadt, 64293, Germany) with the KinaseGlo® luminescence assay (Promega Corporation, 2800 Woods Hollow Road Madison, WI 53711, USA) following procedures reported in the literature. In detail, luminescent assays were performed in white 96-well plates, using the following buffer: 50 mM HEPES (pH 7.5),1 mM EDTA, 1 mM EGTA, and 15 mM MgCl2. […] In a typical assay, 10 μL of inhibitor solution (dissolved in DMSO at 10 mM concentration and diluted in assay buffer to the desired concentration) and 10 μL (16 ng) of enzyme solution were added to each well, followed by 20 μL of assay buffer containing 0.1% casein substrate and 4 μM ATP.
After 60 min of incubation at 30 °C, the enzymatic reactions were stopped with 40 μL of KinaseGlo® reagent (Promega). The luminescence signal (relative light unit, RLU) was recorded after 10 min at 25 °C using Tecan Infinite M100. […] Two independent experiments were performed in duplicate and the corresponding residual activity of CK1δ was obtained. Data were analyzed using Excel and reported as the mean of the two experiments with standard deviation. For IC50 determination ten different inhibitor concentrations ranging from 100 to0.026 μM were used and each point was assessedin duplicate. IC50 values are the mean of three independent experiments and 95% confidence limits were also reported. Data were analyzed using GraphPad Prism software (version 8.0).

Row | Compound | remaining activity at 40 µM (CK1δ (aa 1-294)) | IC50 (CK1δ (aa 1-294)) | further results
1 | CNC(=O)c1c(F)cccc1Nc1nc(Nc2cc3c(cc2OC)CCN3C(=O)CN(C)C)nc2[nH]ccc12 [GSK1838705A] | – | – | IC50 (ALK kinase): […]; Ki (CK1δ [1]): 3.5 µM
2 | CSc1c[nH]c2ncnc(NCCCO)c12 [CHEMBL2000114] | – | – | Ki (CK1δ [2]; same kinome scan from Abbott Labs): 1 µM
3 | Cc1c(C)n(-c2cccnc2)c2ncnc(N)c12 [Compound 52] | 28.3% | 13.5 µM | –
4 | O=C(Nc1n[nH]c2ccc(-c3cn(Cc4ccccc4)nn3)cc12)c1ccccc1 [CHEMBL1999931] | – | – | Ki (CK1δ [2]; multikinase inhibitor with 3-amino-indazole scaffold): 0.316 µM

Further lines, with some results ahead:

Row | remaining activity at 40 µM (CK1δ (aa 1-294)) | IC50 (CK1δ (aa 1-294)) | Compound | further results
5 | 37.8% | 3.31 µM | N#Cc1c(N)nsc1N1CCOCC1 [Compound 28] | –
6 | 23.8% | 12.7 µM | Nc1ncnc2sc3c(c12)CCCC3 [Compound 37] | –
7 | 24.7% | 13.9 µM | Nc1ncnc2nccc(O)c12 [Compound 59] | –
8 | 24.4% | 20.5 µM | Nc1n[nH]c2cc(Cl)ccc12 [Compound 38] | –
9 | 28.1% | 18.1 µM | Nc1nsc(Nc2ccccc2)n1 [Compound 62] | –
10 | 35.4% | 24.9 µM | Nc1n[nH]c2cccc(F)c12 [Compound 63] | –

Source: article PMC8471300, “A Computational Workflow for the Identification of Novel Fragments Acting as Inhibitors of the Activity of Protein Kinase CK1δ” (International Journal of Molecular Sciences, 2021)
